# Data: US20090227671A1, “Prevention and treatment of atherosclerosis with lithospermate B” (Industry-Academic Cooperation Foundation, priority 2005, published 2009)
# What was measured:
# [1] = tested on: common carotid arteries after balloon injury; assay: Neointimal hyperplasia in balloon-injured carotid artery animal model; assay type: in vivo, Sprague-Dawley rats; details: LAB 10 mg/kg/day from 2 days prior to PTA, compared with placebo
# Text: Two French Forgarty embolectomy catheters were inserted into white male Sprague-Dawley (300 g) through external carotid arteries, and blood vessels were intentionally damaged by moving catheters, which were swollen by adding a physiological saline solution, 3 times vertically within the common carotid thereby expanding blood vessels while shedding off the endothelial cells. A total of 30 rats were divided into 3 groups (10 rats/group) and used in this experiment: group 1 was not treated; group 2 was damaged with their blood vessels; and group 3 was treated with LAB and then damaged with their blood vessels. LAB (10 mg/kg/day) was injected intravenously for a period of 30 days (i.e., from 2 days prior to the blood vessel damage to 28 days after the blood vessel damage). The rats were sacrificed on the 28th day after the blood vessel damage by ablating carotid artery and it was fixed with 4% formaldehyde and then dyed with hematoxylineosin. The mid parts of the damaged blood vessel were cut into 2-4 parts and analyzed via computerized morphometry (SCN Image). […]
# White Sprague-Dawley rats were damaged by using percutaneous transluminal angioplastyas (‘PTA’) as stated above. […] On the 2oth day after the surgery the rats were sacrificed and the Intima-Media Thickness (‘IMT’) was measured.
# [2] = tested on: vascular smooth muscle cells; assay: VSMC migration induced by PDGF-BB (modified Boyden chamber); assay type: cell-based, Sprague-Dawley rats; details: pretreated with LAB, various concentrations; 16 hrs
# Procedure: The migration of VSMC with 8 μm of pores was measured by using modified Boyden chamber method [Brown C, Pan X, Hassid A. Nitric oxide and C-type atrial natriuretic peptide stimulate primary aortic smooth muscle cell migration via a cGMP-dependent mechanism: relationship to microfilament dissociation and altered cell morphology. Circ Res. Apr. 2 1999; 84(6):655-667], which utilizes collagen-coated transwell tissue culture inserts consisting of polycarbonate membrane. 3.0×10^6 cells/mL of the above vascular smooth muscle cells were allowed to float in a culture medium without serum, treated with LAB with various concentrations and then cultured at 37° C. for 30 min. Then, the cells were treated with either 0.5 mL DMEM without serum or 0.5 mL DMEM without serum along with PDGF-BB 10 ng/mL and then placed in the lower part of a chamber. 100 μL of the folating materials of the above cells (final 3.0×10^5 cells/well) was added to the upper part of the chamber and cultured at 37° C. for 16 hrs. The cells were then fixed, dyed with hematoxylin, and filters were dried and developed.
# It is known that […] plays an important role in proliferation of VSMC as well as development of atherosclerosis. To investigate whether LAB decreases the migration of VSMC induced by PDGF-BB, an experiment was performed as follows by using the aforementioned modified Boyden chamber method.
# [3] = tested on: SD rats; assay: Acute toxicity due to oral administration in SD rats; assay type: in vivo
# Procedure: (§1) Acute toxicity test was performed using 6 week old SPF SD rats. The SD rats were divided two per each group and each rat was orally administered once with LAB in the amount of 1 g/kg/1 mL, which was suspended in 0.5% methylcellulose. After the above administration, the rats were subjected to examination with regard to survival, clinical symptoms, change in body weight, and the like and also hematological examination, biochemical blood test. Further, autopsies were performed to observe abnormalities in abdominal organs.
# [4] = as above; assay type: in vivo; details: SD, rat, in vivo, 1 g/kg; oral, single administration
# Procedure: as §1
# [5] = tested on: vascular smooth muscle cells; assay: Cytotoxicity of LAB in VSMC; assay type: cell-based, Sprague-Dawley rats; details: LAB up to 30 μM
# Procedure: The VSMC was treated in a culture medium not containing serum for 24 hrs prior to treatment with PDGF-BB, and the reaction according to the presence or absence of PDGF-BB was analyzed after pretreating with LAB or other reagents.
# To investigate whether LAB decreases the proliferation of VSMC induced by PDGF-BB an experiment was performed as follows. The VSMC was placed in a culture medium not containing serum for 24 hrs to inhibit cell proliferation, and then pretreated with LAB with various concentrations of 1, 5, 10, 20, 30 μM and treated with PDGF-BB for 24 hrs. The extent of VSMC proliferation was compared with that of control as stated above via LDH and MTT assays (FIG. 1).
# [6] = tested on: Akt; assay: Western blot of Akt phosphorylation in VSMC induced by PDGF-BB; assay type: cell-based, Sprague-Dawley rats
# Procedure: VSMC was washed with PBS and then dissolved in lysis buffer (25 mM Tris HCl, pH 7.4, 25 mM NaCl, 25 mM NaF, 25 mM sodium pyrophosphate, 1 mM sodium vanadate, 2.5 mM EDTA, 2.5 mM EGTA, 0.05% (wt/vol) Triton X-100, 0.5% (wt/vol) SDS, 0.5% (wt/vol) deoxycholate, 0.5% (wt/vol) Nonidet P-40, […], and 1 mM PMSF). The cells were collected and centrifuged at 13,000 rpm for 15 min and the protein concentration of the resulting supernatant was measured by Bradford assay. The proteins were denatured and were subjected to SDS-PAGE and then blotted onto nitrocellulose membranes. The membranes were placed in 5% (w/v) non-fat dry milk in TBS with 0.1% Tween20 (TBS-T) and then placed at room temperature for 3 hrs. The blots were placed at 4° C. along with anti-ERK1/2 or anti-Akt antibodies (Cell signaling Technologh, Berely. Mass., USA) for 16 hrs. The membranes were washed 4 times with TBS-T, added with anti-rabbit IgG antibody conjugated with horseradish peroxidase (1:2,000 diluent) and then placed at room temperature for 1 hr. The immunoreactive bands detected by ECL reagents were developed by Hyperfilm-ECL (Amersham Life Science, Little Chalfont, UK). The bands showing positive responses were quantitated by densitometry and then compared with that of control.
# In FIG. 1B, it is shown that both U0126 (20 μM) and LY294002 (40 μM) inhibited activities of LDH and MTT induced by PDGF-BB. As a way to investigate the signal transduction pathway involved in VSMC proliferation induced by PDGF-BB, an experiment was conducted to examine whether PDGF-BB activates a relatively lower signal transduction pathway such as ERK1/2 and Akt.
structure (smiles),measurement,setting,value
"O=C(/C=C/c1ccc(O)c2c1[C@H](C(=O)O[C@H](Cc1ccc(O)c(O)c1)C(=O)[O-])[C@@H](c1ccc(O)c(O)c1)O2)O[C@H](Cc1ccc(O)c(O)c1)C(=O)[O-].[Mg+2] [LAB, lithospermate B]",increase in Intima-Media Thickness (IMT),[1],much low
same,migration of VSMC induced by PDGF-BB,[2],decreased in proportion to the concentration
same,dose without toxicity to rats,"[3]; oral, single administration",up to 500 mg/kg
same,survival,[3]; single oral dose 1 g/kg in 0.5% methylcellulose,all experimental rats survived
same,"clinical symptoms, toxicities and other abnormalities","[3]; single oral dose 1 g/kg, body weight, hematology, blood biochemistry, autopsy","no abnormal clinical symptoms, no toxicities and other abnormalities"
same,LD50,[4],> 500 mg/kg
same,adverse reaction in VSMC,[5]; highest concentration,no adverse reaction observed
same,cytotoxic activities,[5]; data not shown,no cytotoxic activities observed
same,decrease of Akt phosphorylation,"[6]; 30 μM LAB, 20 mM NAC, 40 μM LY294002, 1 h, then PDGF-BB 10 min, FIG. 4C",8 folds
same,phosphorylation of Akt due to PDGF-BB,"[6]; LAB 1, 5, 10, 20, 30 μM for 1 h, PDGF-BB 10 min, FIG. 4B",inhibits
same,"most effective concentration, inhibition of Akt phosphorylation",[6]; PDGF-BB 10 ng/mL,30 µM
